Results on 39 compounds are retold here after PMC7232165 (Viruses, 2020).

One data set is described as follows: in vitro. The class given is cell-based. Particulars: human, TZM-GFP cells, 72 h, XTT; mean ± standard deviation; read-out: CC50 (concentration of compound causing 50% cell death). On the technique in general: Formazan colour is commonly taken as a measure of viable cells.
Another data set relates to HIV-1NL4-3. Kind of data set: Anti-HIV-1 assay in TZM-GFP cells (LTR-activated GFP expression). As to conditions: for EC50: read-out: EC50 (concentration of compound inhibiting HIV-1 replication by 50%); for antiviral activity against HIV-1 (in words): screened at 20 μM.
The subject of another data set is TZM-GFP cells. Kind of data set: in vitro. The format is cell-based. As to conditions: for CC50: TZM-GFP cells, 72 h, XTT, mean ± standard deviation, read-out: CC50 (concentration of compound causing 50% cell death).
For data set [1], the target named is covalently-crosslinked hexameric CA A14C/E45C/W184A/M185A (CA121) (Human immunodeficiency virus type 1 group M subtype B, UniProt P12493, A146C/E177C/M317A/W316A). Kind of data set: Thermal shift assay (TSA) for effect on HIV-1 CA hexamer stability. The format is binding. Particulars: compound 20 µM.
The conditions of data set [2]: HLMs; cited from earlier work.
The nature of data set [3]: Microsomal stability assay, human liver microsomes. The class given is in vitro ADME. Particulars: for half-life at 1 µM: human liver microsomes. A general note: Microsomes from liver hold many membrane-bound enzymes, among them those of drug oxidation.
The nature of data set [4]: Microsomal stability assay, mouse liver microsomes. The class given is in vitro ADME.
Where [5] appears, read: Human immunodeficiency virus 1, 48 h.

Like-named read-outs stand apart in the source and are kept apart here. Some results are limits rather than exact numbers.

Take `Cc1ccc(-c2nnc(S)n2CC(=O)NNc2ccc(F)cc2)cc1` [Compound 28]: the CC50 at 72 h in the data set “in vitro” is over 100 µM. Further, the EC50 with HIV-1NL4-3 (setting [5]) is over 20 µM.
Consider `O=C(Cn1c(S)nnc1-c1ccccc1)NNc1ccc(-c2ccccc2)cc1` [Compound 36], for which, in the data set “in vitro”, the CC50 at 72 h was over 100 µM. Further, in the data set on HIV-1NL4-3 (setting [5]), the EC50 was over 20 µM.
As for `CC(C)C[C@H](NC(=O)Cn1c(=O)[nH]c2ccccc2c1=O)C(=O)N(C)c1ccccc1` [Compound 14], in the data set on TZM-GFP cells, the CC50 was over 100 µM. In the data set on HIV-1NL4-3, the EC50 was over 20 µM.
The matching figures for `CCC(C)[C@H](NC(=O)Cn1c(=O)[nH]c2ccccc2c1=O)C(=O)Nc1ccc(-c2nnn[nH]2)cc1` (stereo partly shown) [Compound 21]: over 100 µM and over 20 µM.
For `CCC(C)[C@H](NC(=O)Cn1c(=O)[nH]c2ccccc2c1=O)C(=O)N1CCC[C@H]1C(=O)OC` (stereo partly shown) [Compound 7], the CC50 at 72 h in the data set “in vitro” was over 100 µM. In data set [1], the “effect on CA hexamer stability (in words)” value (“effect” for short) is “no such effect was observed”. Moreover, the EC50 with HIV-1NL4-3 (setting [5]) is over 20 µM.
Turning to `Cc1ccc(NNC(=O)Cn2c(S)nnc2-c2cccc3ccccc23)cc1` [Compound 37], the CC50 at 72 h in the data set “in vitro” is over 100 µM. Besides, the EC50 in the data set on HIV-1NL4-3 (setting [5]) was over 20 µM.
Regarding `CN(C(=O)[C@H](Cc1ccccc1)NC(=O)Cn1c(=O)[nH]c2ccccc2c1=O)c1ccccc1` [Compound 11], the CC50 at 72 h in “in vitro” was over 100 µM. For the same compound, the “effect” value in data set [1] is reported as “moderate CA hexamer stabilizing effects”. Also, the EC50 in the data set on HIV-1NL4-3 (setting [5]) is 6.9 ± 0.8 µM. Besides, the “antiviral activity against HIV-1 (in words)” value (“antiviral activity” for short) in the data set on HIV-1NL4-3 is “significant anti-HIV-1 activities”.
For `CN(NC(=O)Cn1c(S)nnc1-c1ccccc1)c1ccccc1` [Compound 39], the CC50 at 72 h in “in vitro” was over 50 µM. Besides, in the data set with HIV-1NL4-3 (setting [5]), the EC50 is over 20 µM.
The matching figures for `N#Cc1ccc(NNC(=O)Cn2c(S)nnc2-c2ccccc2)cc1` [Compound 25]: over 100 µM and over 20 µM.
The matching figures for `N#Cc1cccc(NNC(=O)Cn2c(S)nnc2-c2ccccc2)c1` [Compound 26]: over 100 µM and over 20 µM.
The matching figures for `O=C(Cn1c(S)nnc1-c1cccc2ccccc12)NNc1ccccc1` [Compound 35]: over 100 µM and over 20 µM.
Turning to `CN(C(=O)[C@H](Cc1ccccc1)NC(=O)Cn1c(=O)[nH]c2ccccc2c1=O)c1ccc(F)cc1` [Compound 13], the CC50 in the data set on TZM-GFP cells was over 100 µM. In addition, the “effect” value in data set [1] was “moderate CA hexamer stabilizing effects”. In the data set with HIV-1NL4-3, the EC50 amounted to 8 ± 1.3 µM and the “antiviral activity” value is on record as “significant anti-HIV-1 activities”.
`O=C(Cn1c(S)nnc1-c1ccccc1)NNc1ccc(F)cc1` [Compound 24]: in the data set “in vitro”, the CC50 at 72 h is over 100 µM. The EC50 in the data set with HIV-1NL4-3 (setting [5]) is over 20 µM.
Regarding `Cc1[nH]c2ccccc2c1CC(=O)N[C@@H](Cc1ccccc1)C(=O)N(C)c1ccccc1` [Compound 1, PF74, reference compound], the “half-life (t1/2) in human liver microsomes” value in data set [2] is on record as “less than 1 min”. Moreover, in the data set with HIV-1NL4-3 (setting [5]), the EC50 stood at 0.61 ± 0.2 µM.
Consider `COC(=O)[C@@H]1CCCN1C(=O)[C@H](Cc1cccc2cc[nH]c12)NC(=O)Cn1c(=O)[nH]c2ccccc2c1=O` [Compound 5], for which, in the data set with TZM-GFP cells, the CC50 is over 100 µM. For the same compound, the EC50 in the data set on HIV-1NL4-3 (TZM-GFP cells, MOI = 1, 48 h, mean ± standard deviation, at least two independent experiments) is over 20 µM.
On to `Cc1ccc(-c2nnc(S)n2CC(=O)NNc2ccccc2)cc1` [Compound 27], for which the CC50 at 72 h in “in vitro” was about 100 µM. The EC50 in the data set with HIV-1NL4-3 (setting [5]) is over 20 µM.
With `CC(C)C[C@H](NC(=O)Cn1c(=O)[nH]c2ccccc2c1=O)C(=O)Nc1ccccc1` [Compound 15], in the data set with TZM-GFP cells, the CC50 is over 100 µM. Further, the EC50 in the data set with HIV-1NL4-3 is over 20 µM.
In the case of `COC(=O)[C@@H]1CCCN1C(=O)[C@H](Cc1cccc2cc[nH]c12)NC(=O)Cn1c(=O)[nH]c2ccccc2c1=O` [Compound 4], in the data set “in vitro”, the CC50 at 72 h was under 100 µM. For the same compound, the EC50 in the data set on HIV-1NL4-3 (setting [5]) is over 20 µM.
Taken in the same sequence, the figures for `N#Cc1ccc(NNC(=O)Cn2c(S)nnc2-c2cccc3ccccc23)cc1` [Compound 38] were over 100 µM and over 20 µM.
For the compound `O=C(Cn1c(S)nnc1-c1ccccc1)NNc1ccccc1` [Compound 23], the CC50 at 72 h in “in vitro” was over 100 µM. The EC50 in the data set on HIV-1NL4-3 (setting [5]) was over 20 µM.
As to `CC(C)(C)[C@H](NC(=O)Cn1c(=O)[nH]c2ccccc2c1=O)C(=O)Nc1ccccc1` [Compound 17], the CC50 in the data set with TZM-GFP cells is over 100 µM. The EC50 with HIV-1NL4-3 was over 20 µM.
Regarding `COC(=O)[C@@H]1CCCN1C(=O)CNC(=O)Cn1c(=O)[nH]c2ccccc2c1=O` [Compound 3], in “in vitro”, the CC50 at 72 h was over 100 µM. The “effect” value in data set [1] is recorded as “complete loss of the CA hexamer stabilizing effect”. The EC50 in the data set with HIV-1NL4-3 (setting [5]) is over 20 µM.
On to `Cc1ccc(-c2nnc(S)n2CC(=O)NNc2ccc(C#N)cc2)cc1` [Compound 29], for which the CC50 at 72 h in the data set “in vitro” is over 100 µM. The EC50 with HIV-1NL4-3 (setting [5]) is over 20 µM.
In the case of `CCC(C)[C@H](NC(=O)Cn1c(=O)[nH]c2ccccc2c1=O)C(=O)N(C)c1ccc(Cl)cc1` (stereo partly shown) [Compound 20], the CC50 in the data set on TZM-GFP cells is over 100 µM. The EC50 with HIV-1NL4-3 was over 20 µM.
The matching figures for `CCC(C)[C@H](NC(=O)Cn1c(=O)[nH]c2ccccc2c1=O)C(=O)Nc1ccccc1` (stereo partly shown) [Compound 19]: over 100 µM and over 20 µM.
For the compound `Cc1ccc(-c2nnc(S)n2CC(=O)NNc2ccc(-c3ccccc3)cc2)cc1` [Compound 30], the CC50 at 72 h in the data set “in vitro” is over 100 µM. Also, in the data set on HIV-1NL4-3 (setting [5]), the EC50 is over 20 µM.
In the case of `CCC(C)[C@H](NC(=O)Cn1c(=O)[nH]c2ccccc2c1=O)C(=O)N(C)c1ccccc1` (stereo partly shown) [Compound 18], the CC50 with TZM-GFP cells was over 100 µM. For the same compound, in the data set with HIV-1NL4-3, the EC50 is over 20 µM.
With `COC(=O)C1CCCN1C(=O)C(NC(=O)Cn1c(=O)[nH]c2ccccc2c1=O)C(C)C` (stereo not shown) [Compound 2], the “cytotoxicity (in words)” value in the data set on TZM-GFP cells (screened at 100 μM) is recorded as “no cytotoxicity”. Also, the CC50 at 72 h in the data set “in vitro” is over 100 µM. For the same compound, the EC50 in the data set with HIV-1NL4-3 (setting [5]) was over 20 µM. Further, the “antiviral activity” value in the data set with HIV-1NL4-3 is “no significant antiviral activity”.
`Cc1ccc(NNC(=O)Cn2c(S)nnc2-c2ccccc2C)cc1` [Compound 33]: the CC50 at 72 h in the data set “in vitro” was over 100 µM. Moreover, the EC50 with HIV-1NL4-3 (setting [5]) was over 20 µM.
Taken in the same sequence, the figures for `Cc1ccccc1-c1nnc(S)n1CC(=O)NNc1ccccc1` [Compound 32] were over 100 µM and over 20 µM.
In the case of `O=C(Cn1c(=O)[nH]c2ccccc2c1=O)N[C@@H](Cc1ccccc1)C(=O)Nc1ccccc1` [Compound 12], the CC50 in the data set on TZM-GFP cells was under 100 µM. The “effect” value in data set [1] is given as “did not show activity in either assay”. In the data set with HIV-1NL4-3, the EC50 was over 20 µM and the “antiviral activity” value is listed as “did not show activity in either assay”.
On to `Cc1ccccc1-c1nnc(S)n1CC(=O)NNc1ccc(C#N)cc1` [Compound 34], for which, in “in vitro”, the CC50 at 72 h is over 100 µM. The EC50 in the data set with HIV-1NL4-3 (setting [5]) was over 20 µM.
Taken in the same sequence, the figures for `O=C(Cn1c(S)nnc1-c1ccccc1)NNc1ccccn1` [Compound 22] were over 100 µM and over 20 µM.
Taken in the same sequence, the figures for `O=C(Cn1c(=O)[nH]c2ccccc2c1=O)N[C@@H](Cc1cccc2cc[nH]c12)C(=O)N1CCC[C@H]1C(=O)Nc1ccccc1` [Compound 9] were over 100 µM and over 20 µM.
`COC(=O)[C@@H]1CCCN1C(=O)[C@H](CSCc1ccccc1)NC(=O)Cn1c(=O)[nH]c2ccccc2c1=O` [Compound 6]: the CC50 at 72 h in “in vitro” is over 100 µM. In data set [1], the “effect” value was “no such effect was observed”. Further, the EC50 in the data set on HIV-1NL4-3 (setting [5]) was over 20 µM.
For `O=C(Cn1c(=O)[nH]c2ccccc2c1=O)N[C@@H](CSCc1ccccc1)C(=O)N1CCC[C@H]1C(=O)Nc1ccccc1` [Compound 8], in the data set “in vitro”, the CC50 at 72 h is 44 ± 5 µM. Moreover, the EC50 with HIV-1NL4-3 (setting [5]) was over 20 µM.
`Cc1ccc(N(C)C(=O)[C@@H](NC(=O)Cn2c(=O)[nH]c3ccccc3c2=O)C(C)(C)C)cc1` [Compound 16]: the CC50 with TZM-GFP cells was over 100 µM. The EC50 with HIV-1NL4-3 is over 20 µM.
Turning to `O=C(Cn1c(=O)[nH]c2ccccc2c1=O)N[C@@H](Cc1ccccc1)C(=O)N1CCC[C@H]1C(=O)Nc1ccccc1` [Compound 10], in the data set “in vitro”, the CC50 at 72 h was over 100 µM. In addition, the “half-life (t1/2) in HLMs, fold longer than PF74” value in data set [3] (HLMs, relative to PF74) is recorded as 44 fold. Besides, the half-life at 1 µM in data set [3] (pH 7.4, with Cobicistat 0.5 µM (CYP3A inhibitor), in the presence of CYP3A inhibitor Cobicistat 0.5 µM, read-out: Phase I metabolic stability t1/2, HLM (+Cobi)) was over 120 min; in data set [3] (pH 7.4, 1 µM compound, NADPH, read-out: Phase I metabolic stability t1/2, HLM), 31 min; in data set [4] (pH 7.4, mouse liver microsomes, 1 µM compound, NADPH, read-out: Phase I metabolic stability t1/2, MLM), 2.9 min; in data set [4] (pH 7.4, with Cobicistat 0.5 µM (CYP3A inhibitor), mouse liver microsomes, in the presence of CYP3A inhibitor Cobicistat 0.5 µM, read-out: Phase I metabolic stability t1/2, MLM (+Cobi)), 85 min. The “effect” value in data set [1] is recorded as “moderate CA hexamer stabilizing effects”. In the data set with HIV-1NL4-3 (setting [5]), the EC50 is 1.6 ± 0.1 µM. In addition, the “antiviral potency (EC50), fold less than PF74” value in the data set on HIV-1NL4-3 (relative to PF74 EC50 = 0.61 μM) worked out at 2.5 fold. Further, the “antiviral activity” value in the data set with HIV-1NL4-3 was “significant anti-HIV-1 activities”.
As for `Cc1ccc(-c2nnc(S)n2CC(=O)NNc2ccccn2)cc1` [Compound 31], in the data set “in vitro”, the CC50 at 72 h is over 100 µM. The EC50 in the data set with HIV-1NL4-3 (setting [5]) was over 20 µM.
